Converted amounts (≈) assume the structure as drawn. Where two headings read alike, the source gives them in different places.
Tests used:
[1] = system: Candida tropicalis CCM 8264 (ATCC 750); experiment: Antifungal microdilution broth (EUCAST); type: cell-based; settings: read-out: MIC Candida tropicalis
[2] = system: Enterococcus faecalis CCM 4224 (ATCC 29212); experiment: Antibacterial microdilution broth (EUCAST); type: cell-based; settings: read-out: MIC Enterococcus faecalis
[3] = system: Aspergillus flavus CCM 8363; experiment: Antifungal microdilution broth (EUCAST); type: cell-based; settings: Aspergillus flavus, CCM8363, read-out: MIC Aspergillus flavus
[4] = system: Pseudomonas aeruginosa CCM 3955 (ATCC 27853); experiment: Antibacterial microdilution broth (EUCAST); type: cell-based; settings: read-out: MIC Pseudomonas aeruginosa
[5] = system: Lichtheimia corymbifera CCM 8077; experiment: Antifungal microdilution broth (EUCAST); type: cell-based; settings: Lichtheimia corymbifera, CCM8077, read-out: MIC Lichtheimia corymbifera
[6] = system: Mycobacterium avium DSM 44,156 (ATCC 25291); experiment: Antimycobacterial microdilution (resazurin) vs M. avium; type: cell-based; settings: Mycobacterium avium, Middlebrook 7H9, resazurin; read-out: MIC M. avium
[7] = system: Candida parapsilosis CCM 8260 (ATCC 22019); experiment: Antifungal microdilution broth (EUCAST); type: cell-based; settings: Lodderomyces parapsilosis, read-out: MIC Candida parapsilosis
[8] = system: Trichophyton interdigitale CCM 8377 (ATCC 9533); experiment: Antifungal microdilution broth (EUCAST); type: cell-based; settings: Trichophyton interdigitale, read-out: MIC Trichophyton interdigitale
[9] = system: methicillin-resistant Staphylococcus aureus subsp. aureus (MRSA) CCM 4750 (ATCC 43300); experiment: microbe, parasite or virus in culture; type: cell-based; settings: read-out: MIC Methicillin-resistant Staphylococcus aureus subsp. aureus
[10] = system: Mycobacterium tuberculosis H37Ra ITM-M006710 (ATCC 9431); experiment: Antimycobacterial microdilution (resazurin) vs Mtb H37Ra; type: cell-based; settings: Middlebrook 7H9, resazurin, recalculated from µg/mL, read-out: MIC Mtb H37Ra
[11] = system: Candida krusei CCM 8271 (ATCC 6258); experiment: Antifungal microdilution broth (EUCAST); type: cell-based; settings: Pichia kudriavzevii, read-out: MIC Candida krusei
[12] = system: Mycobacterium tuberculosis H37Rv CNCTC My 331/88 (ATCC 27294); experiment: Microplate Alamar Blue assay vs Mtb H37Rv; type: cell-based; settings: Mycobacterium tuberculosis, pH 6.6, MABA, Middlebrook 7H9 pH 6.6, recalculated from µg/mL; read-out: MIC Mtb H37Rv
[13] = system: Candida albicans CCM 8320 (ATCC 24433); experiment: Antifungal microdilution broth (EUCAST); type: cell-based; settings: Candida albicans, read-out: MIC Candida albicans
[14] = system: Mycolicibacterium smegmatis DSM 43,465 (ATCC 607); experiment: Antimycobacterial microdilution (resazurin) vs M. smegmatis; type: cell-based; settings: Middlebrook 7H9, resazurin, read-out: MIC M. smeg.
[15] = system: Mycobacterium kansasii DSM 44,162 (ATCC 12478); experiment: Antimycobacterial microdilution (resazurin) vs M. kansasii; type: cell-based; settings: Middlebrook 7H9, resazurin, read-out: MIC M. kansasii
[16] = system: Acinetobacter baumannii DSM 30007 (ATCC 19606); experiment: Antibacterial microdilution broth (EUCAST); type: cell-based; settings: read-out: MIC Acinetobacter baumannii
[17] = system: Aspergillus fumigatus ATCC 204305; experiment: Antifungal microdilution broth (EUCAST); type: cell-based; settings: Aspergillus fumigatus, ATCC204305, read-out: MIC Aspergillus fumigatus
HepG2 cell line = experiment: Cytotoxicity screening, CellTiter 96 assay; settings: Homo sapiens, HepG2, 24 h, read-out: IC50 HepG2
[18] = system: Mycolicibacterium aurum DSM 43,999 (ATCC 23366); experiment: Antimycobacterial microdilution (resazurin) vs M. aurum; type: cell-based; settings: read-out: MIC M. aurum
[19] = system: Staphylococcus epidermidis CCM 4418 (ATCC 12228); experiment: Antibacterial microdilution broth (EUCAST); type: cell-based; settings: read-out: MIC Staphylococcus epidermidis
[20] = system: Klebsiella pneumoniae CCM 4415 (ATCC 10031); experiment: Antibacterial microdilution broth (EUCAST); type: cell-based; settings: for MIC: Klebsiella pneumoniae, read-out: MIC Klebsiella pneumoniae
[21] = system: Escherichia coli CCM 3954 (ATCC 25922); experiment: Antibacterial microdilution broth (EUCAST); type: cell-based; settings: for MIC: Escherichia coli, read-out: MIC Escherichia coli
[22] = system: Staphylococcus aureus subsp. aureus CCM 4223 (ATCC 29213); experiment: Antibacterial microdilution broth (EUCAST); type: cell-based; settings: read-out: MIC Staphylococcus aureus subsp. aureus

O=C(Nc1ccc2c(c1)B(O)OC2)c1ccc(Cl)cc1 [Compound 14, 4-chloro-N-(1-hydroxy-1,3-dihydrobenzo[c][1,2]oxaborol-6-yl)benzamide]
MIC ([1]; 24h incubation): > 125 µM | MIC ([1]; 48h incubation): > 125 µM | MIC ([2]; 24h incubation): > 500 µM | MIC ([2]; 48h incubation): > 500 µM | MIC ([3]; 24h incubation): > 125 µM | MIC ([3]; 48h incubation): > 125 µM | MIC ([4]; 24h incubation): > 500 µM | MIC ([4]; 48h incubation): > 500 µM | MIC ([5]; 24h incubation): > 125 µM | MIC ([5]; 48h incubation): > 125 µM | MIC [6]: 435 µM (≈ 125 µg/mL) | MIC ([7]; 24h incubation): > 125 µM | MIC ([7]; 48h incubation): > 125 µM | MIC ([8]; 72h incubation): > 125 µM | MIC ([8]; 120h incubation): > 125 µM | MIC ([9]; 24 h): > 500 µM | MIC ([9]; 48 h): > 500 µM | MIC [10]: 435 µM (≈ 125 µg/mL) | MIC ([11]; 24h incubation): > 125 µM | MIC ([11]; 48h incubation): > 125 µM | MIC [12]: 43.5 µM (≈ 12.5 µg/mL) | MIC ([13]; 24h incubation): > 125 µM | MIC ([13]; 48h incubation): > 125 µM | melting point: 225.5 to 228.1 °C | MIC [14]: 217 µM (≈ 62.5 µg/mL) | MIC [15]: 217 µM (≈ 62.5 µg/mL) | MIC ([16]; 24h incubation): > 500 µM | MIC ([16]; 48h incubation): > 500 µM | MIC ([17]; 24h incubation): > 125 µM | MIC ([17]; 48h incubation): > 125 µM | IC50 (HepG2 cell line): > 1000 µM | MIC ([18]; Middlebrook 7H9, resazurin): 13.6 µM (≈ 3.91 µg/mL) | MIC ([19]; 24h incubation): > 500 µM | MIC ([19]; 48h incubation): > 500 µM | MIC ([20]; 24h incubation): > 500 µM | MIC ([20]; 48h incubation): > 500 µM | MIC ([21]; 24h incubation): > 500 µM | MIC ([21]; 48h incubation): > 500 µM | MIC ([22]; 24h incubation): > 500 µM | MIC ([22]; 48h incubation): > 500 µM

O=C(Nc1ccc2c(c1)B(O)OC2)c1ccc(Cl)s1 [Compound 15, 5-chloro-N-(1-hydroxy-1,3-dihydrobenzo[c][1,2]oxaborol-6-yl)thiophene-2-carboxamide]
MIC ([1]; 24h incubation): > 500 µM | MIC ([1]; 48h incubation): > 500 µM | MIC ([2]; 24h incubation): > 500 µM | MIC ([2]; 48h incubation): > 500 µM | MIC ([3]; 24h incubation): > 500 µM | MIC ([3]; 48h incubation): > 500 µM | MIC ([4]; 24h incubation): > 500 µM | MIC ([4]; 48h incubation): > 500 µM | MIC ([5]; 24h incubation): > 500 µM | MIC ([5]; 48h incubation): > 500 µM | MIC [6]: 426 µM (≈ 125 µg/mL) | MIC ([7]; 24h incubation): > 500 µM | MIC ([7]; 48h incubation): > 500 µM | MIC ([8]; 72h incubation): > 500 µM | MIC ([8]; 120h incubation): > 500 µM | MIC ([9]; 24 h): 500 µM (≈ 147 µg/mL) | MIC ([9]; 48 h): 500 µM (≈ 147 µg/mL) | MIC [10]: 53.2 µM (≈ 15.6 µg/mL) | MIC ([11]; 24h incubation): > 500 µM | MIC ([11]; 48h incubation): > 500 µM | MIC [12]: 42.6 µM (≈ 12.5 µg/mL) | MIC ([13]; 24h incubation): > 500 µM | MIC ([13]; 48h incubation): > 500 µM | melting point: 234.9 to 237.1 °C | MIC [14]: 852 µM (≈ 250 µg/mL) | MIC [15]: 106 µM (≈ 31.3 µg/mL) | MIC ([16]; 24h incubation): > 500 µM | MIC ([16]; 48h incubation): > 500 µM | MIC ([17]; 24h incubation): > 500 µM | MIC ([17]; 48h incubation): > 500 µM | IC50 (HepG2 cell line): 210 µM | MIC [18]: 53.2 µM (≈ 15.6 µg/mL) | MIC ([19]; 24h incubation): 500 µM (≈ 147 µg/mL) | MIC ([19]; 48h incubation): 500 µM (≈ 147 µg/mL) | MIC ([20]; 24h incubation): > 500 µM | MIC ([20]; 48h incubation): > 500 µM | MIC ([21]; 24h incubation): > 500 µM | MIC ([21]; 48h incubation): > 500 µM | MIC ([22]; 24h incubation): 500 µM (≈ 147 µg/mL) | MIC ([22]; 48h incubation): 500 µM (≈ 147 µg/mL)

O=C(Nc1ccc2c(c1)B(O)OC2)c1cscn1 [Compound 16, N-(1-hydroxy-1,3-dihydrobenzo[c][1,2]oxaborol-6-yl)thiazole-4-carboxamide]
MIC ([1]; 24h incubation): > 500 µM | MIC ([1]; 48h incubation): > 500 µM | MIC ([2]; 24h incubation): > 500 µM | MIC ([2]; 48h incubation): > 500 µM | MIC ([3]; 24h incubation): > 500 µM | MIC ([3]; 48h incubation): > 500 µM | MIC ([4]; 24h incubation): > 500 µM | MIC ([4]; 48h incubation): > 500 µM | MIC ([5]; 24h incubation): > 500 µM | MIC ([5]; 48h incubation): > 500 µM | MIC [6]: 240 µM (≈ 62.5 µg/mL) | MIC ([7]; 24h incubation): > 500 µM | MIC ([7]; 48h incubation): > 500 µM | MIC ([8]; 72h incubation): > 500 µM | MIC ([8]; 120h incubation): > 500 µM | MIC ([9]; 24 h): 250 µM (≈ 65 µg/mL) | MIC ([9]; 48 h): 500 µM (≈ 130 µg/mL) | MIC [10]: 120 µM (≈ 31.3 µg/mL) | MIC ([11]; 24h incubation): > 500 µM | MIC ([11]; 48h incubation): > 500 µM | MIC [12]: 96.1 µM (≈ 25 µg/mL) | MIC ([13]; 24h incubation): > 500 µM | MIC ([13]; 48h incubation): > 500 µM | melting point: 225.7 to 227.9 °C | MIC [14]: 30 µM (≈ 7.81 µg/mL) | MIC [15]: 30 µM (≈ 7.81 µg/mL) | MIC ([16]; 24h incubation): > 500 µM | MIC ([16]; 48h incubation): > 500 µM | MIC ([17]; 24h incubation): > 500 µM | MIC ([17]; 48h incubation): > 500 µM | IC50 (HepG2 cell line): > 1000 µM | MIC ([18]; Middlebrook 7H9, resazurin): 15 µM (≈ 3.91 µg/mL) | MIC ([19]; 24h incubation): 500 µM (≈ 130 µg/mL) | MIC ([19]; 48h incubation): > 500 µM | MIC Klebsiella pneumoniae ([20]; 48h incubation): no inhibition | MIC ([20]; 24h incubation): 500 µM (≈ 130 µg/mL) | MIC ([20]; 48h incubation): > 500 µM | MIC Escherichia coli ([21]; 48h incubation): no inhibition | MIC ([21]; 24h incubation): 500 µM (≈ 130 µg/mL) | MIC ([21]; 48h incubation): > 500 µM | MIC ([22]; 24h incubation): 125 µM (≈ 32.5 µg/mL) | MIC ([22]; 48h incubation): 125 µM (≈ 32.5 µg/mL)
